According to patent publication US20230090708A1, “METHODS AND COMPOSITIONS FOR THE TREATMENT OF HEMANGIOMA” (MASSEY VENTURES LIMITED, priority 2020, published 2023):
≈ marks a conversion by molar mass, not a printed value. Entries after “also recorded” stand apart in the source; their conditions may differ. Like-named read-outs stand apart in the source and are kept apart here.

How the values were obtained:
[1] = cited from earlier work
[2] = test system: proliferating hemangioma cells; assay: Experiment 7: different ACEi and beta blockers on one primary cell line, MTT; assay type: cell-based, human; details: for Results Summary: 72 hours, one cell line; for inhibition at 1 µM / inhibition at 10 µM: Homo sapiens, 72 h, read-out: Inhibition vs. Cells + Adjuvant at 72 Hours
Description: (§1) An in vitro cell culture model of infantile hemangioma was developed to assess the impact of renin-angiotensin system inhibitors on cellular proliferation. A primary cell line of proliferating infantile hemangioma cells, including haemangioma stem cells, was derived from a tissue biopsy obtained from patients during the proliferating phase of the disease. The primary cell lines are cultured in 25 cm^2 flasks using standard culture media and conditions. The cultured cells are used to seed 96-well plates with a seed cell concentration of 2500 or 5000 cells per well, with additional culture media (200 μL). All studies are performed in triplicate.
The plates are incubated overnight to allow cell adherence to the wells. The wells are photographed to confirm cell adherence and confluency. The appropriate drug(s) to be examined are subsequently added to the wells. […] The media is aspirated from each well and stored frozen for possible future analyses. Media is added to the wells and an MTT determination is undertaken according to standard protocols.
(§2) From the triplicate incubations of each drug concentration at each time, as well as for all controls, the mean±standard deviation is calculated. The net survival (optical density value) is calculated by subtracting the appropriate blank mean value from each cell culture. From the MTT data, the percentage of survival of cells in the presence of each concentration of drug after each time of culturing is determined.
Briefly, cells were seeded in 96-well plates at concentrations of 2500 cells/well in triplicate for each drug and drug combination. […] All plates were performed in triplicate. Beta blockers used in the study were (±)-propranolol, R-propranolol, S-propranolol, timolol, and betaxalol.

ACE = ACE (Homo sapiens, UniProt P12821); details: enzyme source not given; cited from earlier work
[3] = test system: proliferating infantile hemangioma cells derived from multiple patients (n=5); assay: Example 4: single agents and combinations on five patient-derived cell lines, MTT; assay type: cell-based, human; details: for Individual Responders at 72 Hours with ≥30% Inhibition vs. Cells + Adjuvant: responders/cell lines; for Results Summary: 72 hours, n=5 cell lines; for Estimated Optimal Dosage Range in vitro / inhibition of all five patient-derived haemangioma cell lines: single agent
Description: An in vitro cell culture model of infantile hemangioma was developed to assess the impact of renin-angiotensin system inhibitors on cellular proliferation. A primary cell line of proliferating infantile hemangioma cells, including haemangioma stem cells, was derived from a tissue biopsy obtained from patients during the proliferating phase of the disease. The primary cell lines are cultured in 25 cm^2 flasks using standard culture media and conditions. The cultured cells are used to seed 96-well plates with a seed cell concentration of 2500 or 5000 cells per well, with additional culture media (200 μL). All studies are performed in triplicate. The plates are incubated overnight to allow cell adherence to the wells. The wells are photographed to confirm cell adherence and confluency. The appropriate drug(s) to be examined are subsequently added to the wells. After 24 hours, one set of plates (experimental and blank) is stopped. The media is aspirated from each well and stored frozen for possible future analyses. Media is added to the wells and an MTT determination is undertaken according to standard protocols. This is repeated at 48 and 72 hours. From the triplicate incubations of each drug concentration at each time, as well as for all controls, the mean±standard deviation is calculated. The net survival (optical density value) is calculated by subtracting the appropriate blank mean value from each cell culture. From the MTT data, the percentage of survival of cells in the presence of each concentration of drug after each time of culturing is determined. […] The experimental protocol was performed as per Example 1. Briefly, cells were seeded in 96-well plates at a concentration of 2500 cells/well in triplicate for each drug and drug combination. Drug(s) were added to each well 24 hours after seeding and re-dosed every 24 hours. Cell viability was assessed by MTT assay after 24, 48, and 72 hours. All plates were performed in triplicate. Drugs were assessed alone and in combination as described in Table 3.

[4] = cited from earlier work; remark: listed apart in the source
[5] = in words; cited from earlier work
[6] = test system: proliferating hemangioma cell lines (n=9); assay: Example 6: single agents and combinations on nine primary cell lines, MTT, CompuSyn combination index; assay type: cell-based, human; details: 1 to 10 μM; 72 hours; n=9
Description: as §1
The plates are incubated overnight to allow cell adherence to the wells. The wells are photographed to confirm cell adherence and confluency. The appropriate drug(s) to be examined are subsequently added to the wells. After 24 hours, one set of plates (experimental and blank) is stopped. The media is aspirated from each well and stored frozen for possible future analyses. Media is added to the wells and an MTT determination is undertaken according to standard protocols. This is repeated at 48 and 72 hours.
as §2
A study was undertaken using combinations of ACE inhibitors, beta blockers and angiotensin II type 2 receptor blockers to inhibit proliferating hemangioma cells. […] Patient histories pertaining to each cell line is described in Table 5.
The experimental protocol was performed as per Example 1. Briefly, cells were seeded in 96-well plates at concentrations of 2500 cells/well in triplicate for each drug and drug combination. Drug(s) were added to each well 24 hours after seeding and re-dosed every 24 hours. Cell viability was assessed by MTT assay after 24, 48, and 72 hours. All plates were performed in triplicate. Drugs were assessed alone and in combination, as described in Table 6. Propranolol was used as a model beta blocker, cilazapril as a model ACE inhibitor, and SMM02 (L-159686) as a model AT2Ri. Synergy was measured using the CompuSyn open-source software protocol for quantifying synergism and antagonism that uses the median-effect equation and mass-action laws to generate a combination index (www.compusyn.com). Synergism, additive effects and antagonism are defined as a CI<1, CI=1, and CI>1, respectively.

[7] = cited from earlier work; remark: listed apart in the source
[8] = test system: proliferating infantile haemangioma cells; assay: Example 2: single 100 μM dose on primary haemangioma cell line, MTT; assay type: cell-based, human; details: for inhibitory effect on haemangioma cell proliferation: 24, 48, 72 hours
Description: An in vitro cell culture model of infantile hemangioma was developed to assess the impact of renin-angiotensin system inhibitors on cellular proliferation. A primary cell line of proliferating infantile hemangioma cells, including haemangioma stem cells, was derived from a tissue biopsy obtained from patients during the proliferating phase of the disease. The primary cell lines are cultured in 25 cm^2 flasks using standard culture media and conditions. The cultured cells are used to seed 96-well plates with a seed cell concentration of 2500 or 5000 cells per well, with additional culture media (200 μL). All studies are performed in triplicate. The plates are incubated overnight to allow cell adherence to the wells. The wells are photographed to confirm cell adherence and confluency. The appropriate drug(s) to be examined are subsequently added to the wells. After 24 hours, one set of plates (experimental and blank) is stopped. The media is aspirated from each well and stored frozen for possible future analyses. Media is added to the wells and an MTT determination is undertaken according to standard protocols. This is repeated at 48 and 72 hours. From the triplicate incubations of each drug concentration at each time, as well as for all controls, the mean±standard deviation is calculated. The net survival (optical density value) is calculated by subtracting the appropriate blank mean value from each cell culture. From the MTT data, the percentage of survival of cells in the presence of each concentration of drug after each time of culturing is determined. […] This model recapitulates the process of locally administering the drug directly to the hemangioma microenvironment, which is representative of diffusing the drug through skin to reach the target cells.

proliferating IH = details: topical 0.5% solution or gel; cited from earlier work

Sequence of ACE (P12821 30-1306, species assumed): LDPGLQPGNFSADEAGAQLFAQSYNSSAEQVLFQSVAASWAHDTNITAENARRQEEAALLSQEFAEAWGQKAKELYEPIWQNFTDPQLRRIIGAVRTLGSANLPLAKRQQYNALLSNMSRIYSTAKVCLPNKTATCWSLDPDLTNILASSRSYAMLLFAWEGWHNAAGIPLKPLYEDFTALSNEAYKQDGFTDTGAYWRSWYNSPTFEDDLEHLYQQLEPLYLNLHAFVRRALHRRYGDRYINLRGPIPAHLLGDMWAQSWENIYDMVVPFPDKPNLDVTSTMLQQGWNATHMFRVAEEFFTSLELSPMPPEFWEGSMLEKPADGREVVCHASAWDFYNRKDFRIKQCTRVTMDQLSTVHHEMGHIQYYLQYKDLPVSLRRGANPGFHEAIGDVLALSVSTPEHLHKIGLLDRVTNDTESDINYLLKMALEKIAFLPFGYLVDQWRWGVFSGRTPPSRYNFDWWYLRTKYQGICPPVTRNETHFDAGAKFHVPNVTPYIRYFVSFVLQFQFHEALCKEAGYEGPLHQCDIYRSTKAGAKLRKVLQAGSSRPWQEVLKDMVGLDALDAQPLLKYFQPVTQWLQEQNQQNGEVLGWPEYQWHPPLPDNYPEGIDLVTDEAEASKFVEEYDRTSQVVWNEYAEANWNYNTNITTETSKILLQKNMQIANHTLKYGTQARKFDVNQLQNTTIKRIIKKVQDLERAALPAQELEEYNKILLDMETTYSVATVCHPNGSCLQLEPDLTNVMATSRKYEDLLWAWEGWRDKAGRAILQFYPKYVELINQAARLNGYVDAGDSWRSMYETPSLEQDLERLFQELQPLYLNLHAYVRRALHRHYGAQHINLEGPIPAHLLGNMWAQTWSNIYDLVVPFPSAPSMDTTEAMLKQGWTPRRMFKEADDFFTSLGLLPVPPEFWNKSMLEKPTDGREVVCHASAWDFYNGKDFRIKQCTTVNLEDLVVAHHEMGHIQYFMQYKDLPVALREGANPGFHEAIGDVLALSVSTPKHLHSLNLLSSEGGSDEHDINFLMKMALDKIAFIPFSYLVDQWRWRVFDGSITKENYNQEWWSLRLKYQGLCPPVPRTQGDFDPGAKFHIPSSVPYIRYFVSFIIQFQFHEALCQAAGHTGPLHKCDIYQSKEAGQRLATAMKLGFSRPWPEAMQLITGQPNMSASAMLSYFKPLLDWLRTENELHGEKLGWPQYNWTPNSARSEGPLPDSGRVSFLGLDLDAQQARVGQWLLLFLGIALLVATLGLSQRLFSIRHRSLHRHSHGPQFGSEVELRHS

Compound	Log P ([1]; Table 1)	log P [1]	inhibition of proliferating hemangioma cells ([2]; 1 μM and 10 μM)	Results Summary [2]	inhibition at 1 µM [2]	inhibition at 10 µM [2]	IC50 (ACE)	Individual Responders at 72 Hours with ≥30% Inhibition vs. Cells + Adjuvant ([3]; 1 μM)	Individual Responders at 72 Hours with ≥30% Inhibition vs. Cells + Adjuvant ([3]; 10 μM)	Results Summary [3]	Estimated Optimal Dosage Range in vitro [3]	inhibition of all five patient-derived haemangioma cell lines [3]	pKa [4]	pKa ([4]; second value)	Half life: short or long acting [5]	dose-response across all cell lines [6]	Solubility [7]	inhibitory effect on haemangioma cell proliferation [8]	increase in the inhibition of haemangioma cell proliferation compared to timolol ([8]; 24 hours)	clinical response (proliferating IH)
CCOC(=O)[C@H](CCc1ccccc1)N[C@H]1CCCN2CCC[C@@H](C(=O)O)N2C1=O [Cilazapril]	0.8	0.8	good and similar level of inhibition	Responder	4.35%	60.5%	4 nM	1 μM - 1/5	10 μM - 4/5	Responder	1 to 10 µM	significantly inhibited	3.4	6.5	Long acting	typical dose-response	5000 µg/mL (≈ 12 mM)	diminishes over time	7 fold	–
CC(C)(C)NC[C@H](O)COc1nsnc1N1CCOCC1 [Timolol]	–	–	–	Responder	11.1%	57%	–	1 μM - 0/5	10 μM - 4/5	Responder	1 to 10 µM	significantly inhibited	–	–	–	–	–	little effect; also recorded: consistent	–	clinically beneficial response
